Measured values from patent US20260193271A1, “PAN-KRAS INHIBITOR COMPOUND” (ADLAI NORTYE BIOPHARMA CO., LTD., priority 2022, published 2026).

Legend:
[1] = test system: AsPC-1 (G12D); experiment: In vitro cell proliferation inhibition test (CellTiter-Glo), AsPC-1; assay type: cell-based; conditions: Homo sapiens, ASPC1, AsPC-1 pancreas cell line, KRAS (p.G12D), 72 h co-incubation
Text: (§1) Test Example 1: In Vitro Cell Proliferation Inhibition Test
(§2) Due to the diversity of RAS mutations and in order to evaluate the activity of compounds in different RAS mutation cell lines, we selected KRAS^WT, KRAS^G12C, KRAS^G12D, KRAS^G12V and BRAF mutation cell lines (see the table below) for in vitro activity evaluation and screening of compounds.
(§3) Protocol: CellTiter-Glo® Cell Luminescent Viability Assay (Promega)
(§4) According to the doubling time of different cell lines, different numbers of cells (1000-5000 cells/well) were seeded in 96-well plates containing 180 μl of corresponding culture medium and cultured overnight in a cell culture incubator at 37° C. with 5% CO2. On the second day, the test compound was pre-diluted 3-fold with culture medium, with the highest concentration being 100 μM, for a total of 10 concentration gradients; then 20 μl of culture medium containing different concentrations of the compound was added to the cells in the 96-well plate to ensure that the final concentration of the compound was up to 10 μM, with 10 concentration gradients of 3-fold dilution. After the cells and compounds were co-incubated for 72 h, the 96-well plate was removed from the incubator and equilibrated at room temperature for 30 min. Then, 25 μl of CellTiter-Glo® Reagent was added to each well and mixed thoroughly. The mixture was incubated at room temperature for 10 min, and then 100 μl of the sample was transferred to a white 96-well plate (OptiPlate™-96, PerkinElmer). The […] signal value was read using a multi-function microplate reader (SpectraMax® i3x, Molecular devices). The signal values were then standardized, and the curve was fitted using a four-parameter regression equation to calculate the half maximal inhibitory concentration (IC50) of the compound on the cell line.

[2] = test system: SW480 (G12V); experiment: In vitro cell proliferation inhibition test (CellTiter-Glo), SW480; assay type: cell-based; conditions: Homo sapiens, SW480 colon cell line, KRAS (p.G12V), 72 h co-incubation
Text: as §1, §2, §3, §4

CCn1c(-c2cc(-c3cc(C4CCN(C)CC4)on3)cnc2[C@H](C)OC)c2c3cc(ccc31)-c1csc(n1)C[C@H](NC(=O)[C@H]1C[C@@H]1C)C(=O)N1CCC[C@H](N1)C(=O)OCC(C)(C)C2 (atropisomer, axis not shown) [Compound 30, (1S,2S)-N-((6^3S,4S,Z)-1^1-ethyl-1^2-(2-((S)-1-methoxyethyl)-5-(5-(1-methylpiperidin-4-yl)isoxazol-3-yl)pyridin-3-yl)-10,10-dimethyl-5,7-dioxo-6^1,6^2,6^3,6^4,6^5,6^6-hexahydro-1^1H-8-oxa-2(4,2)-thiazola-1(5,3)-indola-6(1,3)-pyridazinacycloundecaphane-4-yl)-2-methylcyclopropane-1-carboxamide]
IC50 [1]: 0.58 nM | IC50 [2]: 0.44 nM

CCn1c(-c2cc(-c3cnn(CCN4CCOCC4)c3)cnc2[C@H](C)OC)c2c3cc(ccc31)-c1csc(n1)C[C@H](NC(=O)[C@H]1C[C@@H]1C)C(=O)N1CCC[C@H](N1)C(=O)OCC(C)(C)C2 (atropisomer, axis not shown) [Compound 15, (1S,2S)-N-((6^3S,4S,Z)-1^1-ethyl-1^2-(2-((S)-1-methoxyethyl)-5-(1-(2-morpholinoethyl)-1H-pyrazol-4-yl)pyridin-3-yl)-10,10-dimethyl-5,7-dioxo-6^1,6^2,6^3,6^4,6^5,6^6-hexahydro-1^1H-8-oxa-2(4,2)-thiazola-1(5,3)-indola-6(1,3)-pyridazinacycloundecaphane-4-yl)-2-methylcyclopropane-1-carboxamide]
IC50 [1]: 3 nM | IC50 [2]: 6 nM

CCn1c(-c2cc(-c3cnc(CN4CCN(CCOC)CC4)nc3)cnc2[C@H](C)OC)c2c3cc(ccc31)-c1csc(n1)C[C@H](NC(=O)[C@H]1C[C@@H]1C)C(=O)N1CCC[C@H](N1)C(=O)OCC(C)(C)C2 (atropisomer, axis not shown) [Compound 58, (1S,2S)-N-((6^3S,4S,Z)-1^1-ethyl-1^2-(2-((S)-1-methoxyethyl)-5-(2-((4-(2-methoxyethyl)piperazin-1-yl)methyl)pyrimidin-5-yl)pyridin-3-yl)-10,10-dimethyl-5,7-dioxo-6^1,6^2,6^3,6^4,6^5,6^6-hexahydro-1^1H-8-oxa-2(4,2)-thiazola-1(5,3)-indola-6(1,3)-pyridazinacycloundecaphane-4-yl)-2-methylcyclopropane-1-carboximide]
IC50 [1]: 68 nM | IC50 [2]: 30 nM

CCn1c(-c2cc(-c3cnc(CN4CCOCC4)cn3)cnc2[C@H](C)OC)c2c3cc(ccc31)-c1csc(n1)C[C@H](NC(=O)[C@H]1C[C@@H]1C)C(=O)N1CCC[C@H](N1)C(=O)OCC(C)(C)C2 (atropisomer, axis not shown) [Compound 35, (1S,2S)-N-((6^3S,4S,Z)-1^1-ethyl-1^2-(2-((S)-1-methoxyethyl)-5-(5-(morpholinomethyl)pyrazin-2-yl)pyridin-3-yl)-10,10-dimethyl-5,7-dioxo-6^1,6^2,6^3,6^4,6^5,6^6-hexahydro-1^1H-8-oxa-2(4,2)-thiazola-1(5,3)-indola-6(1,3)-pyridazinacycloundecaphane-4-yl)-2-methylcyclopropane-1-carboxamide]
IC50 [1]: 4 nM | IC50 [2]: 2 nM

CCn1c(-c2cc(-c3ccn(CCN4CCOCC4)c(=O)c3)cnc2[C@H](C)OC)c2c3cc(ccc31)-c1csc(n1)C[C@H](NC(=O)[C@H]1[C@H](C)[C@@H]1C)C(=O)N1CCC[C@H](N1)C(=O)OCC(C)(C)C2 (atropisomer, axis not shown) [Compound 36, (1r,2R,3S)-N-((6^3S,4S,Z)-1^1-ethyl-1^2-(6-((S)-1-methoxyethyl)-1′-(2-morpholinoethyl)-2′-oxo-1′,2′-dihydro-[3,4′-bipyridin]-5-yl)-10,10-dimethyl-5,7-dioxo-6^1,6^2,6^3,6^4,6^5,6^6-hexahydro-1^1H-8-oxa-2(4,2)-thiazola-1(5,3)-indola-6(1,3)-pyridazinacycloundecaphane-4-yl)-2,3-dimethylcyclopropane-1-carboxamide]
IC50 [1]: 0.39 nM | IC50 [2]: 1 nM

CCn1c(-c2cc(-c3cnn(C4CCN(C)CC4)c3)cnc2[C@H](C)OC)c2c3cc(ccc31)-c1csc(n1)C[C@H](NC(=O)[C@H]1[C@H](C)[C@@H]1C)C(=O)N1CCC[C@H](N1)C(=O)OCC(C)(C)C2 (atropisomer, axis not shown) [Compound 18, (1r,2R,3S)-N-((6^3S,4S,Z)-1^1-ethyl-1^2-(2-((S)-1-methoxyethyl)-5-(1-(1-methylpiperidin-4-yl)-1H-pyrazol-4-yl)pyridin-3-yl)-10,10-dimethyl-5,7-dioxo-6^1,6^2,6^3,6^4,6^5,6^6-hexahydro-1^1H-8-oxa-2(4,2)-thiazola-1(5,3)-indola-6(1,3)-pyridazinacycloundecaphane-4-yl)-2,3-dimethylcyclopropane-1-carboxamide]
IC50 [1]: 0.45 nM | IC50 [2]: 1.4 nM

CCn1c(-c2cc(-c3cncc(CN4CCS(=N)(=O)CC4)c3)cnc2[C@H](C)OC)c2c3cc(ccc31)-c1csc(n1)C[C@H](NC(=O)[C@H]1[C@H](C)[C@@H]1C)C(=O)N1CCC[C@H](N1)C(=O)OCC(C)(C)C2 (atropisomer, axis not shown) [Compound 42, (1r,2R,3S)-N-((6^3S,4S,Z)-1^1-ethyl-1^2-(5′-((1-imino-1-oxido-16-thiomorpholino)methyl)-6-((S)-1-methoxyethyl)-[3,3′-bipyridin]-5-yl)-10,10-dimethyl-5,7-dioxo-6^1,6^2,6^3,6^4,6^5,6^6-hexahydro-1^1H-8-oxa-2(4,2)-thiazola-1(5,3)-indola-6(1,3)-pyridazinacycloundecaphane-4-yl)-2,3-dimethylcyclopropane-1-carboxamide]
IC50 [1]: 3 nM | IC50 [2]: 3.5 nM

CCn1c(-c2cc(-c3cnc(CN4CCS(=O)(=O)CC4)nc3)cnc2[C@H](C)OC)c2c3cc(ccc31)-c1csc(n1)C[C@H](NC(=O)[C@H]1C[C@@H]1C)C(=O)N1CCC[C@H](N1)C(=O)OCC(C)(C)C2 (atropisomer, axis not shown) [Compound 38, (1S,2S)-N-((6^3S,4S,Z)-1^2-(5-(2-((1,1-dioxidothiomorpholino)methyl)pyrimidin-5-yl)-2-((S)-1-methoxyethyl)pyridin-3-yl)-1^1-ethyl-10,10-dimethyl-5,7-dioxo-6^1,6^2,6^3,6^4,6^5,6^6-hexahydro-1^1H-8-oxa-2(4,2)-thiazola-1(5,3)-indola-6(1,3)-pyridazinacycloundecaphane-4-yl)-2-methylcyclopropane-1-carboxamide]
IC50 [1]: 66 nM | IC50 [2]: 23 nM

CCn1c(-c2cc(-c3cnc(CN4CCCCC4)nc3)cnc2[C@H](C)OC)c2c3cc(ccc31)-c1csc(n1)C[C@H](NC(=O)[C@H]1C[C@@H]1C)C(=O)N1CCC[C@H](N1)C(=O)OCC(C)(C)C2 (atropisomer, axis not shown) [Compound 55, (1S,2S)-N-((6^3S,4S,Z)-1^1-ethyl-1^2-(2-((S)-1-methoxyethyl)-5-(2-(piperidin-1-ylmethyl)pyrimidin-5-yl)pyridin-3-yl)-10,10-dimethyl-5,7-dioxo-6^1,6^2,6^3,6^4,6^5,6^6-hexahydro-1^1H-8-oxa-2(4,2)-thiazola-1(5,3)-indola-6(1,3)-pyridazinacycloundecaphane-4-yl)-2-methylcyclopropane-1-carboxamide]
IC50 [1]: 6.8 nM | IC50 [2]: 15 nM
